{"source": "the supplement of paper PMC10307832", "experiment_in_all_cases": "relative viability (nuclei count vs DMSO), 5 days (fraction); higher = more cells survive", "key": {"NCI-H2023": {"test_system": "NCI-H2023", "method_in_brief": "(§1)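 Five library-drug doses in √10 steps were combined with a fixed anchor-drug dose, or a single drug was given alone, by pin tool to lung cancer cell lines in 1536-well plates the day after seeding. Nuclei were stained and counted after 5 days. Relative viability is the nuclei count in treated wells over that in vehicle wells, taken as the median of duplicate plates.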"}, "SW 1573": {"test_system": "SW 1573", "method_in_brief": "as §1"}, "LC-2-ad": {"test_system": "LC-2-ad", "method_in_brief": "as §1"}, "ABC-1": {"test_system": "ABC-1", "method_in_brief": "as §1"}, "NCI-H2347": {"test_system": "NCI-H2347", "method_in_brief": "as §1"}, "NCI-H522": {"test_system": "NCI-H522", "method_in_brief": "as §1"}, "NCI-H647": {"test_system": "NCI-H647", "method_in_brief": "as §1"}, "A-427": {"test_system": "A-427", "method_in_brief": "as §1"}, "UMC-11": {"test_system": "UMC-11", "method_in_brief": "as §1"}, "NCI-H1944": {"test_system": "NCI-H1944", "method_in_brief": "as §1"}, "NCI-H838": {"test_system": "NCI-H838", "method_in_brief": "as §1"}, "NCI-H1793": {"test_system": "NCI-H1793", "method_in_brief": "as §1"}}}
{"compound": "Cc1csc(=NC2CCCCC2)n1/N=C/c1ccc(O)c(O)c1O", "note": "[MIM1] + CC(=O)c1c(C)c2cnc(Nc3ccc(N4CCNCC4)cn3)nc2n(C2CCCC2)c1=O [Palbociclib] (partner 0.5 µM)", "values": [{"measurement": "relative viability", "setting": "NCI-H2023; first compound 0.2 µM", "result": 0.393}, {"measurement": "relative viability", "setting": "NCI-H2023; first compound 0.6325 µM", "result": 0.387}, {"measurement": "relative viability", "setting": "NCI-H2023; first compound 2 µM", "result": 0.391}, {"measurement": "relative viability", "setting": "NCI-H2023; first compound 6.325 µM", "result": 0.194}, {"measurement": "relative viability", "setting": "NCI-H2023; first compound 20 µM", "result": 0.0614}, {"measurement": "relative viability", "setting": "SW 1573; first compound 0.2 µM", "result": 0.412}, {"measurement": "relative viability", "setting": "SW 1573; first compound 0.6325 µM", "result": 0.501}, {"measurement": "relative viability", "setting": "SW 1573; first compound 2 µM", "result": 0.365}, {"measurement": "relative viability", "setting": "SW 1573; first compound 6.325 µM", "result": 0.325}, {"measurement": "relative viability", "setting": "SW 1573; first compound 20 µM", "result": 0.148}, {"measurement": "relative viability", "setting": "LC-2-ad; first compound 0.2 µM", "result": 0.463}, {"measurement": "relative viability", "setting": "LC-2-ad; first compound 0.6325 µM", "result": 0.471}, {"measurement": "relative viability", "setting": "LC-2-ad; first compound 2 µM", "result": 0.502}, {"measurement": "relative viability", "setting": "LC-2-ad; first compound 6.325 µM", "result": 0.289}, {"measurement": "relative viability", "setting": "LC-2-ad; first compound 20 µM", "result": 0.182}, {"measurement": "relative viability", "setting": "ABC-1; first compound 0.2 µM", "result": 0.603}, {"measurement": "relative viability", "setting": "ABC-1; first compound 0.6325 µM", "result": 0.988}, {"measurement": "relative viability", "setting": "ABC-1; first compound 2 µM", "result": 0.544}, {"measurement": "relative viability", "setting": "ABC-1; first compound 6.325 µM", "result": 0.406}, {"measurement": "relative viability", "setting": "ABC-1; first compound 20 µM", "result": 0.473}, {"measurement": "relative viability", "setting": "NCI-H2347; first compound 0.2 µM", "result": 0.408}, {"measurement": "relative viability", "setting": "NCI-H2347; first compound 0.6325 µM", "result": 0.404}, {"measurement": "relative viability", "setting": "NCI-H2347; first compound 2 µM", "result": 0.446}, {"measurement": "relative viability", "setting": "NCI-H2347; first compound 6.325 µM", "result": 0.42}, {"measurement": "relative viability", "setting": "NCI-H2347; first compound 20 µM", "result": 0.356}, {"measurement": "relative viability", "setting": "NCI-H522; first compound 0.2 µM", "result": 0.819}, {"measurement": "relative viability", "setting": "NCI-H522; first compound 0.6325 µM", "result": 0.921}, {"measurement": "relative viability", "setting": "NCI-H522; first compound 2 µM", "result": 0.932}, {"measurement": "relative viability", "setting": "NCI-H522; first compound 6.325 µM", "result": 1.13}, {"measurement": "relative viability", "setting": "NCI-H522; first compound 20 µM", "result": 0.61}, {"measurement": "relative viability", "setting": "NCI-H647; first compound 0.2 µM", "result": 0.395}, {"measurement": "relative viability", "setting": "NCI-H647; first compound 0.6325 µM", "result": 0.404}, {"measurement": "relative viability", "setting": "NCI-H647; first compound 2 µM", "result": 0.381}, {"measurement": "relative viability", "setting": "NCI-H647; first compound 6.325 µM", "result": 0.338}, {"measurement": "relative viability", "setting": "NCI-H647; first compound 20 µM", "result": 0.0937}, {"measurement": "relative viability", "setting": "A-427; first compound 0.2 µM", "result": 0.523}, {"measurement": "relative viability", "setting": "A-427; first compound 0.6325 µM", "result": 0.471}, {"measurement": "relative viability", "setting": "A-427; first compound 2 µM", "result": 0.545}, {"measurement": "relative viability", "setting": "A-427; first compound 6.325 µM", "result": 0.473}, {"measurement": "relative viability", "setting": "A-427; first compound 20 µM", "result": 0.337}, {"measurement": "relative viability", "setting": "UMC-11; first compound 0.2 µM", "result": 0.368}, {"measurement": "relative viability", "setting": "UMC-11; first compound 0.6325 µM", "result": 0.318}, {"measurement": "relative viability", "setting": "UMC-11; first compound 2 µM", "result": 0.33}, {"measurement": "relative viability", "setting": "UMC-11; first compound 6.325 µM", "result": 0.362}, {"measurement": "relative viability", "setting": "UMC-11; first compound 20 µM", "result": 0.338}, {"measurement": "relative viability", "setting": "NCI-H1944; first compound 0.2 µM", "result": 0.369}, {"measurement": "relative viability", "setting": "NCI-H1944; first compound 0.6325 µM", "result": 0.314}, {"measurement": "relative viability", "setting": "NCI-H1944; first compound 2 µM", "result": 0.248}, {"measurement": "relative viability", "setting": "NCI-H1944; first compound 6.325 µM", "result": 0.255}, {"measurement": "relative viability", "setting": "NCI-H1944; first compound 20 µM", "result": 0.186}, {"measurement": "relative viability", "setting": "NCI-H838; first compound 0.2 µM", "result": 0.202}, {"measurement": "relative viability", "setting": "NCI-H838; first compound 0.6325 µM", "result": 0.26}, {"measurement": "relative viability", "setting": "NCI-H838; first compound 2 µM", "result": 0.216}, {"measurement": "relative viability", "setting": "NCI-H838; first compound 6.325 µM", "result": 0.169}, {"measurement": "relative viability", "setting": "NCI-H838; first compound 20 µM", "result": 0.168}, {"measurement": "relative viability", "setting": "NCI-H1793; first compound 0.2 µM", "result": 0.317}, {"measurement": "relative viability", "setting": "NCI-H1793; first compound 2 µM", "result": 0.353}]}
